Data from patent EP0102564A2, “Method for the removal of toxins bound to protein or lipid from blood or blood fractions, and use of certain compounds as liberating agents” (FRAUNHOFER-GESELLSCHAFT ZUR FÖRDERUNG DER ANGEWANDTEN …, priority 1982, dated 1984).
Where two headings read alike, the source gives them in different places.

Tests used:
[1] = molecular target: T1, BSA (Bos taurus, UniProt P02769); assay: Competitive adsorption of fatty acids and Ethanthiol on BSA; design: species or system Rind; conditions: rising oleic acid concentration
Description: Aus der Literatur ist bekannt, daß Fettsäuren eine starke Proteinbindung aufweisen. Proben, die Thiol und ölsäure (einfach ungesättigte Fettsäure) enthielten, zeigten abnehmende Thioladsorption bei steigender ölsäurekonzentration.

[2] = system: Plasmaproteine; conditions: cited from earlier work
[3] = system: Methotrexat, Proteinbindung; assay: Uncoupling of toxin from protein binding, molar ratio K (Table III), toxin Methotrexat; conditions: molar ratio of uncoupler to toxin
Description: Werte können Tabelle III entnommen werden.

[4] = molecular target: T2, HSA (Homo sapiens, UniProt P02768); assay: Binding study of toxins to protein, ultrafiltration and photometry, HSA; assay type: in vitro ADME; conditions: HSA 80 mg in 2 ml PBS, depends on initial concentration, read-out: MTX in ungebundener Form
T2 construct: Humanserumalbumin (HSA); purchased Behring, Marburg or Sigma, St. Louis (fatty-acid-free)
Protocol: Es wurden beide Verfahren der Druckerzeugung (Druckluft, Zentrifugation) erprobt. Dazu wurden die Proben (2 ml) in die Trennzelle gefüllt und ein Teil (150fu1) abgetrennt. Durch diesen kleinen Probenverlust wird das Gleichgewicht der Probe nur schwach gestört. Die Konzentrationen der einzelnen Substanzen (Toxin und Protein) wurden photometrisch mit einem Mehrkomponentenanalyseprogramm ermittelt. Beide Meßverfahren führten zu den gleichen Ergebnissen. Bevorzugt ist das Verfahren der Ultrafiltration mit Hilfe der Zentrifugation. Dieses Verfahren erlaubt einen höheren Probendurchsatz als das Verfahren mit Druckluft. Die verwendeten Proteinkonzentrationen waren physiologisch (Albumin 40 g/l; Fibrinogen 4 g/l). Aus den bekannten Anfangskonzentrationen und der gemessenen Konzentration an freiem ungebundenen Toxin lassen sich die Bindungsparameter sowie die Adsorptionsisothermen punktweise ermitteln.
Das freie ungebundene Toxin wurde durch Ultrafiltration gewonnen und die Konzentration photometrisch mit Hilfe der Mehrkomponentenanalyse bestimmt. Die Ausgangsproben enthielten 80 mg Protein und wurden mit PBS auf 2 ml aufgefüllt (physiologische Konzentration). Die Toxinmenge wurde zwischen 100 und 1GOO/ug variiert. Es zeigten sich deutliche Unterschiede zwischen BSA und HSA.

[5] = molecular target: T1, BSA; assay: Binding study of toxins to protein, ultrafiltration and photometry, BSA; conditions: bovine, bsa in pbs
[6] = molecular target: T3, Ethanthiol-Protein-Komplex (BSA) (Bos taurus, UniProt P02769); assay: Variation of the uncoupler amount, release of ET from BSA; design: species or system Rind; conditions: compared with reduced Glutathion
T3 construct: Rinderserumalbumin (BSA, bovine serum albumin); purchased Behring, Marburg
Protocol: Um die Wirksamkeit der beiden Entkoppler vergleichen zu können, wurden Proben mit 40 mg BSA auf 1 ml ET-Lösung (2170/umol ET/1 PBS) über Nacht bei 37 °C inkubiert. Nach dieser Zeit betrug die freie Thiolkonzentration ca. 2 bis 5% der Ausgangskonzentration. Nach der Zugabe unterschiedlicher Entkoppler-Mengen wurde die Freisetzung des ET gaschromatographisch verfolgt. Fig. 3 und 4 zeigen den Verlauf der ET-Konzentration als Funktion der Zeit. Die Zugabe des Entkopplers erfolgte zum Zeitpunkt t = o. Der Parameter K entspricht dem molaren Verhältnis zwischen eingesetzter Entkoppler-Menge und eingesetzter ET-Thiolmenge.

[7] = molecular target: T1, BSA; assay: Adsorption of protein-bound ET on activated carbon without prior release, BSA; design: species or system Rind; conditions: K = 110, added after removal of carbon; BSA and HSA samples
Protocol: (§1) Um die Leistungsfähigkeit der ET-Entfernung nach vorhergehender Abkopplung von Protein beurteilen zu können, wurde die Adsorptionskinetik ohneverwendung eines Entkopplers untersucht. Dazu wurden im Batchversuch Proben, die 40 mg BSA oder HSA auf 1 ml ET-Lösung (2170/umol ET/ 1 PBS) enthielten, über Nacht auf einem Rollermixer inkubiert. Nach Einstellen des Gleichgewichts wurde am nächsten Tag die Konzentration an ET bestimmt. Sie lag für BSA bei ca. 11% und für HSA bei ca. 21% der Ausgangskonzentration. Zu beiden Proben wurden 30 mg SCII (vorher in PBS entgast) zugegeben und die freie ET-Konzentration fortlaufend gemessen. Nach 45 Minuten wurden die AK entfernt und Cystein zugegeben. […] Fig. 6 zeigt den Verlauf der ET-Konzentration. Die Probe, die HSA enthielt, wies eine Abnahme der ET-Menge durch Adsorption von 78% auf, die Probe mit BSA lediglich von ca. 68%. Dieses Ergebnis deckt sich mit der Beobachtung,daß ET stärker an BSA gebunden ist als an HSA. Damit konnte gezeigt werden, daß proteingebundenes ET durch Aktivkohle entfernt werden kann. Die Restkonzentration liegt jedoch relativ hoch, und die Kinetik ist langsam.

[8] = molecular target: T1, BSA; assay: Adsorption of ET on activated carbon after prior release by uncoupler, BSA, batch; design: species or system Rind; conditions: for adsorbierte Menge nach 45 Minuten: uncoupler pre-adsorbed on SCII, then 30 mg AK
Protocol: In dieser Versuchsreihe wurde das Zusammenwirken aller bisher betrachteten Parameter im Batch erprobt. 1 ml ET-Lösung (2170/umol ET/1 PBS) wurden für ca. 18 Stunden bei 37°C mit 40 mg BSA inkubiert. Nach dieser Zeit beträgt die ET-Konzentration lediglich 5% des Ausgangswerts (d.h. 95% des ET sind an das BSA gebunden). Nun erfolgte die Zugabe von 150/ul Entkoppler (K-Cystein = 115, Fig. 7, Kurve a; K-Glutathion = 30, Fig. 8, Kurve a). Die Abkopplung des ET wird verfolgt, bis keine Zunahme der ET-Konzentration mehr eintritt. Bei der Verwendung von Cystein erfolgt die Freisetzung schneller als bei Glutathion.
Nun wurden 30 mg SCII (vorher in PBS entgast) zu den Proben hinzugegeben. Die ET-Konzentration nimmt nun rasch ab. Die gesamte Restmenge beträgt nach 45 Minuten nur noch ca. 5% des Anfangswerts. Es wurden also 95% der vorgegebenen Thiolmenge von 30 mg AK entfernt.
In einer weiteren Versuchsreihe wurde untersucht, ob der Entkoppler auch wirksam ist, wenn er zuvor an Aktivkohle adsorbiert wurde. Dazu wurden 30 mg SCII mit den Entkoppler-Lösungen 2 Stunden inkubiert. Diese vorbeladene Kohle wurde dann statt der Entkoppler-Lösung eingesetzt. Fig. 7 und 8 (jeweils Kurve b) zeigen den Abkopplungsvorgang. Die freie ET-Konzentration steigt in beiden Fällen nicht auf den Anfangswert an. Dem Freisetzungsprozeß ist eine Adsorption überlagert. Sie liegt bei AK-Glutathion um ca. 50% tiefer als bei AK-Cystein. Nach Zugabe von 30 mg AK (in PBS entgast) fällt die ET-Konzentration schnell ab. Nach 45 Minuten beträgt die adsorbierte Menge bei Verwendung von Cystein ca. 97%, bei Verwendung von Glutathion ca. 95%.

[9] = system: Plasma; assay: Removal of protein-bound ET from plasma; conditions: for Restkonzentration an ET nach Adsorption an AK mit vorheriger Freisetzung durch Entkoppler: 30 mg AK, 45 min, relative to initial value
[10] = system: Ethanthiol, Proteinbindung; conditions: molar ratio of uncoupler to toxin; toxin Ethanthiol (Methanthiol)
[11] = molecular target: T2, HSA; assay: Binding of Ethanthiol to HSA, gas chromatography (headspace); assay type: in vitro ADME; conditions: 40 mg HSA per 1 ml ET solution, overnight, equilibrium
Protocol: as §1

[12] = molecular target: T4, Fibrinogen (Bos taurus, UniProt P02672+P02676+P12799)
T4 sequence (P02672 20-615): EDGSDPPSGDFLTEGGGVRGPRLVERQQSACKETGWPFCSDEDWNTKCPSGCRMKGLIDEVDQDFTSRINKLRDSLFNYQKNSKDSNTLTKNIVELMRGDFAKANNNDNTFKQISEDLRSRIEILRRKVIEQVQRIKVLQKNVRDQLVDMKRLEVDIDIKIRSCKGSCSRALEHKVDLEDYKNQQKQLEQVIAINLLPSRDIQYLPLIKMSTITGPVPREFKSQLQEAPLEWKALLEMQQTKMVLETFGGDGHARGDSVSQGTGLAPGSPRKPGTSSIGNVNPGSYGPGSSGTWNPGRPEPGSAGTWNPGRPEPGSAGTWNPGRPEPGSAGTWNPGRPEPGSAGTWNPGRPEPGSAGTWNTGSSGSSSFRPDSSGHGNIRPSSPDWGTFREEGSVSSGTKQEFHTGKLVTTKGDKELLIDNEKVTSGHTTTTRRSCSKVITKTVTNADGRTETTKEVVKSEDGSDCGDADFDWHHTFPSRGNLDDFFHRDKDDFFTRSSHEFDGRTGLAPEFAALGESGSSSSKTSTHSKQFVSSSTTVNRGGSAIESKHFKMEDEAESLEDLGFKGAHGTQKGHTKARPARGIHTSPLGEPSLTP
T4 sequence (P02676 1-468): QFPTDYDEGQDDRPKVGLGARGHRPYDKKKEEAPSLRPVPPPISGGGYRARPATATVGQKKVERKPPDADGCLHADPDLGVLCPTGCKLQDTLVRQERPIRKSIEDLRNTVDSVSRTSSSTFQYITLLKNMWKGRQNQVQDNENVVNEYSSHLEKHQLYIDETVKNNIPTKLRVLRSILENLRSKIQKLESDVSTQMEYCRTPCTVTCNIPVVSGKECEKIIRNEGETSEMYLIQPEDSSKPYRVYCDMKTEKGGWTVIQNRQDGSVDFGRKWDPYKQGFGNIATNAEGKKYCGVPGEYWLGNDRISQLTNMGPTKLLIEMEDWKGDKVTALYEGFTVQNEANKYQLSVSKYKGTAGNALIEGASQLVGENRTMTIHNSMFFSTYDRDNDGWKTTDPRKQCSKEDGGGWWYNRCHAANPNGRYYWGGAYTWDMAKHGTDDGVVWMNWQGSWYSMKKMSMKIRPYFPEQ
T4 sequence (P12799 25-444): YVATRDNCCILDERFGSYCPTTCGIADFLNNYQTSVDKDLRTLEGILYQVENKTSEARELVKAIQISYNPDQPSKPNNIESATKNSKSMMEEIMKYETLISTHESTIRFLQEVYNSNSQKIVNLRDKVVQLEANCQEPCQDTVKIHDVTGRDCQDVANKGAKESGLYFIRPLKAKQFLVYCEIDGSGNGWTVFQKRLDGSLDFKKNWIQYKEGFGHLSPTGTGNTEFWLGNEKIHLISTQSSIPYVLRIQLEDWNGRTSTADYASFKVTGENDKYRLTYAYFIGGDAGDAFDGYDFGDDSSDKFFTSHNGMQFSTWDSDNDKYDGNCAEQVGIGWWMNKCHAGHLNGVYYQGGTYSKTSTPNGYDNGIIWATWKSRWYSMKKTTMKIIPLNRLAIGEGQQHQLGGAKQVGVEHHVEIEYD

[13] = molecular target: T1, BSA; assay: in vitro; conditions: bovine
[14] = Removal of protein-bound ET from plasma
[15] = molecular target: T1, BSA; assay: Binding of Ethanthiol to BSA, gas chromatography (headspace)

T1 sequence (P02769 25-607): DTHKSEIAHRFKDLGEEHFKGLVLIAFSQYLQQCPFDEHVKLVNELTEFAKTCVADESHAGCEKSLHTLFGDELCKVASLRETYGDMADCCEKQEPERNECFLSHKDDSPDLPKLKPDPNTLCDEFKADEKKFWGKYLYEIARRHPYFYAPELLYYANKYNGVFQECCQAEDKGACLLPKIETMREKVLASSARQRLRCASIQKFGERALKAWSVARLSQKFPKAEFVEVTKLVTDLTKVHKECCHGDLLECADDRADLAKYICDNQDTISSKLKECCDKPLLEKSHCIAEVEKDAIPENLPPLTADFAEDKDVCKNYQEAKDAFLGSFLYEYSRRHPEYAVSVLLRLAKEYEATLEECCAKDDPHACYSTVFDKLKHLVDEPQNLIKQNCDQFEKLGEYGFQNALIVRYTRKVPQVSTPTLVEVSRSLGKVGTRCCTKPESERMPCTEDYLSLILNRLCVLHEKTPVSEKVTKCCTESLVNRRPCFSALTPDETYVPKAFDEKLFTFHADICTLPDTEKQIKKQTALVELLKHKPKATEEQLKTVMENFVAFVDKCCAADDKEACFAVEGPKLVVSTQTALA
T2 sequence (P02768 25-609 limits assumed): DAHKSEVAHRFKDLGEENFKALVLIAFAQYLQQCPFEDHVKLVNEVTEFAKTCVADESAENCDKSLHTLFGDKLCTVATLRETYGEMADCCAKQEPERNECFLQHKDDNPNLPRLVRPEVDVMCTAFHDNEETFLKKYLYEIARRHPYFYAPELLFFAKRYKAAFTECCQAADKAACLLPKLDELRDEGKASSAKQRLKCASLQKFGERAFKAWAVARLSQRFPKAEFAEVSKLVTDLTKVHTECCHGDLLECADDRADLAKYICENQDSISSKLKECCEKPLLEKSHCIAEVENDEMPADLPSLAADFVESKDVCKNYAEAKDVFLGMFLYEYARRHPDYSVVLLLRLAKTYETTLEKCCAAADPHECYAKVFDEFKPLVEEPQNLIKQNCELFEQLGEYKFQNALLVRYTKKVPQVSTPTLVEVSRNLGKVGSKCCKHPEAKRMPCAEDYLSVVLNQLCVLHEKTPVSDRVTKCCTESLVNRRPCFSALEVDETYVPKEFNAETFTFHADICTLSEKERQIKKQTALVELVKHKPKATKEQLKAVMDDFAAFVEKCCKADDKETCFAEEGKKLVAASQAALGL
T3 sequence (P02769 25-607): as the sequence (P02769 25-607) above

Molecule: CCCCCCCC/C=C\CCCCCCCC(=O)O [ölsäure]
- Bindung von Ethanthiol an BSA durch Zugabe von ölsäure [1]: behindert oder gar blockiert

Molecule: CN(C)CCCN1c2ccccc2CCc2ccccc21 [Imipramin]
- Bindung von Pharmaka an Plasmaproteine ([2]; plasma): 90%

Molecule: Nc1nc2ncc(CNc3ccc(C(=O)N[C@@H](CCC(=O)O)C(=O)O)cc3)nc2c(=O)[nH]1 [Folsäure]
- K-Werte [3]: ca. 5

Molecule: CN(Cc1cnc2nc(N)nc(N)c2n1)c1ccc(C(=O)N[C@@H](CCC(=O)O)C(=O)O)cc1 [Methotrexat]
- fraction unbound [4]: 0.3 to 0.4
- Bindung von Pharmaka an Plasmaproteine ([2]; plasma): 80%
- fraction unbound [5]: 0.1 to 0.25

Molecule: N[C@@H](CS)C(=O)O [Cystein]
- K-Werte für den gleichen Freisetzungsgrad an ET [6]: höher
- Freisetzung des noch vorhandenen Ethanthiols [7]: totale Freisetzung
- Freisetzung, Geschwindigkeit im Vergleich zu Glutathion ([8]; K-Cystein = 115, K-Glutathion = 30): schneller
- adsorbierte Menge nach 45 Minuten [8]: ca. 97%
- Freisetzung, Geschwindigkeit im Vergleich zu Glutathion [9]: schnellere Freisetzung
- Restkonzentration an ET nach Adsorption an AK mit vorheriger Freisetzung durch Entkoppler ([9]; uncoupler added directly): 15%
- Restkonzentration an ET nach Adsorption an AK mit vorheriger Freisetzung durch Entkoppler ([9]; uncoupler pre-adsorbed on AK): 4%

Molecule: O=C(O)c1ccccc1O [Salicylsäure]
- K-Werte [3]: ca. 5
- Bindung von Pharmaka an Plasmaproteine ([2]; plasma): 80%

Molecule: NNC(=O)c1ccncc1 [Isoniazid]
- Bindung von Pharmaka an Plasmaproteine [2]: 100%

Molecule: CCN(CC)CCCC(C)Nc1ccnc2cc(Cl)ccc12 (racemic) [Chloroquin]
- Bindung von Pharmaka an Plasmaproteine ([2]; plasma): 55%

Molecule: O=c1ccc2ccccc2o1 [Coumarin]
- Bindung von Pharmaka an Plasmaproteine ([2]; plasma): 99%

Molecule: N[C@@H](CCC(=O)N[C@@H](CS)C(=O)NCC(=O)O)C(=O)O [Glutathion, red., Glutathion, reduziert]
- adsorbierte Menge nach 45 Minuten [8]: ca. 95%
- K-Werte [10]: ca. 100
- Entkopplung ([9]; ET rises again after final addition of Cystein): keine 100%ige Entkopplung
- Restkonzentration an ET nach Adsorption an AK mit vorheriger Freisetzung durch Entkoppler ([9]; uncoupler added directly): 15%
- Restkonzentration an ET nach Adsorption an AK mit vorheriger Freisetzung durch Entkoppler ([9]; uncoupler pre-adsorbed on AK): 16%

Molecule: CC1=NS(=O)(=O)c2cc(Cl)ccc2N1 [Diazoxid]
- Bindung von Pharmaka an Plasmaproteine ([2]; plasma): 90%

Molecule: CCS [Ethanthiol]
- Konzentration an ET, % der Ausgangskonzentration [11]: ca. 21%
- von Fibrinogen gebundene molare Menge von Toxin im Vergleich zu Albumin [12]: annähernd die gleiche molare Menge
- fraction unbound at 18 h, 2170 µM ([13]; ET-Konzentration, % des Ausgangswerts): 0.05
- fraction unbound ([13]; Ethanthiol an BSA gebunden): ~0.05
- fraction unbound ([13]; Konzentration an ET, % der Ausgangskonzentration): ~0.11
- fraction unbound ([13]; freie Thiolkonzentration, % der Ausgangskonzentration): 0.02 to 0.05
- fraction unbound at 20 h, 2170 µM [14]: 0.33
- Adsorption des Ethanthiols an BSA bis zur Nachweisgrenze dauert [15]: ≤ 6 Stunden
- Zeit, nach der 50% der ET-Menge gebunden sind ([15]; 40 mg BSA, 1 ml ET solution 2170 µmol/l, 37°C): ca. 3 Stunden

Molecule: Nc1nc2c(c(=O)[nH]1)N(C=O)C(CNc1ccc(C(=O)N[C@@H](CCC(=O)O)C(=O)O)cc1)CN2 (some centres unmarked) [Leucoverin]
- K-Werte [3]: ca. 5

Molecule: O=C1OC(c2ccc(O)c(S(=O)(=O)O)c2)(c2ccc(O)c(S(=O)(=O)O)c2)c2c(Br)c(Br)c(Br)c(Br)c21 [Sulfobromphthalein]
- K-Werte [3]: ca. 5

Molecule: CN(C)CCCN1c2ccccc2Sc2ccc(Cl)cc21 [Chlorpromazin]
- Bindung von Pharmaka an Plasmaproteine ([2]; plasma): 90%

Molecule: Phenylbutazon
- K-Werte [3]: ca. 2
- Bindung von Pharmaka an Plasmaproteine ([2]; plasma): 98%
